We go through two molecules from EP2114387B1, “USE OF COMPOSITIONS CONTAINING AT LEAST ONE LIGNANE AND/OR NEOLIGNANE FOR MODULATING TESTOSTERONE LEVELS” (Europe Finances, priority 2007, dated 2008).

Where two headings read alike, the source gives them in different places.

Experiment [1] has as its target T1, 5-α reductase type I (Homo sapiens, UniProt P18405).
T1 construct: expressed in transfected cells; host or cells: HEK I cells (HEK line kept under Geneticin-418 selection)
T1 sequence (P18405 1-259): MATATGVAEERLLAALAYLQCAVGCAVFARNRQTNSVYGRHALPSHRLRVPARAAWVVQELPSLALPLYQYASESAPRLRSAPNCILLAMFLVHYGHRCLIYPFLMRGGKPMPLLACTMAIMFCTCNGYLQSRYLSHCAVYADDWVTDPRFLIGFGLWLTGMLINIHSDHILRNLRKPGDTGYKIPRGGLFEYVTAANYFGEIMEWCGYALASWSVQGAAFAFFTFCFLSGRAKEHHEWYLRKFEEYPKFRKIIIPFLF
As to conditions: reference value used to choose the positive control concentration; read-out: IC50 du finasteride; cited from earlier work.

Experiment [2] deals with T2, 5-α reductase type II (Homo sapiens, UniProt P31213).
T2 construct: expressed in transfected cells; host or cells: HEK II cells (HEK line kept under Geneticin-418 selection)
T2 sequence (P31213 1-254): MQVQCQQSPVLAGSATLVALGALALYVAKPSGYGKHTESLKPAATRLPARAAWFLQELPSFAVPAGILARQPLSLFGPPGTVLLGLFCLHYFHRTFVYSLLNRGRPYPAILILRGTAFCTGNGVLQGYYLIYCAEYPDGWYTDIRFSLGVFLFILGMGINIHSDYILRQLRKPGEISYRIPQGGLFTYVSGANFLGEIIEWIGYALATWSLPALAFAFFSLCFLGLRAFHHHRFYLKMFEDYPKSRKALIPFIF
To be noted: reference value used to choose the positive control concentration; read-out: IC50 du finasteride; cited from earlier work.

Experiment [3] deals with T1, 5-α reductase type I. The experiment is described as follows: Inhibition of 5-alpha-reductase type I in HEK I cells (conversion of [4-14C]-androstenedione to dihydroandrostenedione). Format: cell-based.
Description: Les cellules de type HEK I et HEK II ont été utilisées dans du DMEM (pH 7.4) avec 10 % FCS, Penicillin/Streptomycin (100 U/mL and 100 µg/mL) et 0.5 mg/mL de Geneticin-418-sulfate. Les tests d'inhibition ont été réalisés à des concentrations cellulaires de 0.25 x 106 cellules par 1.9 cm^2 et incubées pendant 20 h, 5 % CO2 à 37 °C.
Experiment [4] addresses T2, 5-α reductase type II. The experiment can be described thus: Inhibition of 5-alpha-reductase type II in HEK II cells (conversion of [4-14C]-androstenedione to dihydroandrostenedione). It is filed as cell-based. To be noted: for % inhibition de la 5-α reductase type II: n.i. = pas d'inhibition observée. Here is the method:
Les cellules de type HEK I et HEK II ont été utilisées dans du DMEM (pH 7.4) avec 10 % FCS, Penicillin/Streptomycin (100 U/mL and 100 µg/mL) et 0.5 mg/mL de Geneticin-418-sulfate. Les tests d'inhibition ont été réalisés à des concentrations cellulaires de […] cellules par 1.9 cm^2 et incubées pendant 20 h, 5 % CO2 à 37 °C.
Les composés sont dissous dans le DMSO et dilués avec le DMEM pour atteindre les concentrations finales de 100 µM, 10 µM et 1 µM.
Les mesures ont été réalisées grâce à un Phospholmager et les spots correspondant au [4-14C]-androstenedione (A) et au [4-14C]-dihydroandrostenedione (DHA) furent enregistrés avec le logiciel correspondant.
Les calculs ont été réalisés selon la formule suivante: % conversion = (PSL(DHA))/(PSL(DHA+A)) × 100 [formula]
Le pourcentage d'inhibition a été calculé sur une moyenne de deux mesures.
La référence est le finastéride, un médicament inhibiteur des 5α-reductase qui est utilisé comme contrôle positif à deux concentrations de 800 nM et 100 nM, correspondant à l'IC50 du finasteride pour la 5α-reductase de type I et la 5α-reductase de type II, respectivement.

Experiment [5] relates to taux plasmatique de testostérone. The experiment is described as follows: Plasma testosterone level in mice after chronic i.p. administration (ELISA). Format: in vivo, souris SWISS. To be noted: young male mice, figure 1, result in words. Here is the method: […] […] • Letrozole • Dose étudiée : 2 mg/kg. • Mise en solution extemporanée dans le méthylcellulose • Honokiol • Doses étudiée : • Honokiol : 0.01, 0.05, 0.5, 2, 5, 10 mg/kg. • Mise en solution extemporanée dans le méthylcellulose • Voie d'administration : […].). • Volume d'injection : 10 ml/kg. Les dosages ont é[…] selon le protocole du kit ELISA commercialisé par la société AbCys S.A., France.
A general note: In an ELISA, binding on a coated surface is turned into a signal by an enzyme label.

In general, IC50 refers to the point on the concentration scale where inhibition reaches its midpoint. For orientation: inhibition means the percentage by which the read-out fell short of the control.

For `CC(C)(C)NC(=O)[C@H]1CC[C@H]2[C@@H]3CC[C@H]4NC(=O)C=C[C@]4(C)[C@H]3CC[C@]12C` [Finasteride, finastéride, reference compound], the 50% inhibitory concentration (IC50) is 800 nM in experiment [1] and 100 nM in experiment [2]. The inhibition at 0.1 µM came to 11% in experiment [3] (100 nM, mean of two measurements, read-out: % inhibition de la 5-α reductase type I) and 55% in experiment [4] (100 nM, mean of two measurements, read-out: % inhibition de la 5-α reductase type II). Moreover, the inhibition at 0.8 µM in experiment [3] (800 nM, mean of two measurements, read-out: % inhibition de la 5-α reductase type I) is 48%; in experiment [4] (800 nM, mean of two measurements, read-out: % inhibition de la 5-α reductase type II), 89%.
As to `C=CCc1ccc(O)c(-c2ccc(O)c(CC=C)c2)c1` [Honokiol, honokiol], the “taux de testostérone plasmatique” value in experiment [5] was “modulation du taux de testostérone en fonction des doses administrées”. Moreover, the inhibition at 1 µM in experiment [3] (1 µM, mean of two measurements, read-out: % inhibition de la 5-α reductase type I) stood at 1%. In experiment [3] (10 µM, mean of two measurements, read-out: % inhibition de la 5-α reductase type I), the inhibition at 10 µM came out at 11%. Further, the inhibition at 100 µM in experiment [3] (100 µM, mean of two measurements, read-out: % inhibition de la 5-α reductase type I) was 64%. Moreover, the “sélectivité 5-α réductase de type I / type II” value in experiment [3] (conclusion in words) is “inhibiteur sélectif de la 5-α réductase de type I”. Further, in experiment [3] (estimate from the dose-dependent inhibition), the concentration for half-maximal inhibition (IC50) was around 80000 nM. Besides, the “% inhibition de la 5-α reductase type II” value in experiment [4] (1 µM), in experiment [4] (10 µM) and in experiment [4] (100 µM) was “n.i” each time. The “affinité pour la 5-α réductase de type II” value in experiment [4] (result in words) is on record as “aucune affinité n'est observée”.
